Experimental data published in article PMC6658140 (ACS catalysis, 2019).

Tests used:
[1] = target: TropB (Talaromyces stipitatus, UniProt B8M9J8); assay: change in absorbance at […] nm; type: binding
[2] = target: TropB (Talaromyces stipitatus, UniProt B8M9J8, R206Q); assay: change in absorbance at […] nm; type: binding
Sequence of TropB (Talaromyces stipitatus, UniProt B8M9J8, R206Q) (B8M9J8 whole entry R206Q): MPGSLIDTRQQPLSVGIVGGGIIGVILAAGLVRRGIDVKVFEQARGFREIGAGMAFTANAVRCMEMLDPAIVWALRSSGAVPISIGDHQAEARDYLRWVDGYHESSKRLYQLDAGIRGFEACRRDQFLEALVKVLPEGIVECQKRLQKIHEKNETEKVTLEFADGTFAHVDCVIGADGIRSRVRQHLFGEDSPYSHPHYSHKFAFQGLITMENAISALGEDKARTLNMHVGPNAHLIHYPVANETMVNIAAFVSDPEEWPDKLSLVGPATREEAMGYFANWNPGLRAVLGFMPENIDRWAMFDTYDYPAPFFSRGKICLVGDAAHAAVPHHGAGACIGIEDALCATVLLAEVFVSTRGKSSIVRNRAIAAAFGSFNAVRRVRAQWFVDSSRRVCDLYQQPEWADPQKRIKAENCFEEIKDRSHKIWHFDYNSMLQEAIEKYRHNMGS

Sequence of TropB (Talaromyces stipitatus, UniProt B8M9J8) (B8M9J8 whole entry): as the sequence (B8M9J8 whole entry R206Q) above, with Q206R counted along it

Kd [1]: 21 ± 2 µM
Kd [2]: 32 ± 4 µM
Compound: Cc1cc(O)c(C)c(O)c1C=O [compound 1, 3-methylorcinaldehyde]
